According to patent US9464092B2, “Transient protection of normal cells during chemotherapy” (G1 Therapeutics, Inc., priority 2013, dated 2016):

Experiments:
Type in all cases: biochemical
CDK2/CyclinA = CDK2/CyclinA (Homo sapiens (Human), UniProt P24941); assay: CDK2/CyclinA kinase assay (Nanosyn, Caliper microfluidic); conditions: Table 2; for IC50: read-out: CDK2/CycA IC50
Protocol: (§1) Selected compounds disclosed herein were tested in CDK4/cyclinD1, CDK6/CycD3 CDK2/CycA and CDK2/cyclinE kinase assays by Nanosyn (Santa Clara, Calif.) to determine their inhibitory effect on these CDKs. The assays were performed using microfluidic kinase detection technology (Caliper Assay Platform). The compounds were tested in 12-point dose-response format in singlicate at Km for ATP. Phosphoacceptor substrate peptide concentration used was 1 μM for all assays and Staurosporine was used as the reference compound for all assays. Specifics of each assay are as described below:
CDK2/CyclinA: Enzyme concentration: 0.2 nM; ATP concentration: 50 μM; Incubation time: 3 hr.

CDK4/CyclinD1 = CDK4/CyclinD1 (Homo sapiens (Human), UniProt P11802); assay: CDK4/CyclinD1 kinase assay (Nanosyn, Caliper microfluidic); conditions: Table 2; read-out: CDK4/CycD1 IC50
Chain of CDK4/CyclinD1 (P11802 whole entry, species assumed): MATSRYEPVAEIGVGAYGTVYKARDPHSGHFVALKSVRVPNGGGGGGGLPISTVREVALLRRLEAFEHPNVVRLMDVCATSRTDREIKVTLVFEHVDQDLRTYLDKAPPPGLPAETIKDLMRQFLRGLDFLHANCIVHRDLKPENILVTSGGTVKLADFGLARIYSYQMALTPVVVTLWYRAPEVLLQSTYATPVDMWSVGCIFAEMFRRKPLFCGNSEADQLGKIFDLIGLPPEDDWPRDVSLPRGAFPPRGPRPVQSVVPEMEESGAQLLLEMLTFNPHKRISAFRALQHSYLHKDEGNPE
Chain of CDK4/CyclinD1 (P24385 whole entry partner, species assumed): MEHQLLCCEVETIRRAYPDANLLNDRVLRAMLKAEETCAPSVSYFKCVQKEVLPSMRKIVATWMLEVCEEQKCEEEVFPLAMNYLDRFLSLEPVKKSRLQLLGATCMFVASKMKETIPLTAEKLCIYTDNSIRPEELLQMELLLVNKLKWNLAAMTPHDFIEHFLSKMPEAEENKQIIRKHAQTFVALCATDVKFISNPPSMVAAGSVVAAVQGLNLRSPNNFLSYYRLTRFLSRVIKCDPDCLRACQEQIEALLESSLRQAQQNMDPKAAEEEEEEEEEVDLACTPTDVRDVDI
Protocol: as §1
CDK4/CyclinD1: Enzyme concentration: 1 nM; ATP concentration: 200 μM; Incubation time: 10 hr.

CDK2/CyclinE = CDK2/CyclinE (Homo sapiens (Human), UniProt P24941); assay: CDK2/CyclinE kinase assay (Nanosyn, Caliper microfluidic); conditions: Table 2; for IC50: read-out: CDK2/CycE IC50
Protocol: as §1, with “assays.” for “assays. Specifics of each assay are as described below:”

Compound | Fold Selectivity (CDK2/CycA/CDK4) (CDK2/CyclinA) | IC50 (CDK2/CyclinA) | IC50 (CDK4/CyclinD1) | Fold Selectivity (CDK2/CycE/CDK4) (CDK2/CyclinE) | IC50 (CDK2/CyclinE)
CC1(C)CN(c2ccc(Nc3ncc4cc5n(c4n3)C3(CCCCC3)CNC5=O)nc2)CCN1C1CC1 [BB] | 603 | 502 nM | 0.8 nM | 2017 | 1680 nM
CC(C)(C)CCN1CCN(c2ccc(Nc3ncc4cc5n(c4n3)C3(CCCC3)CNC5=O)nc2)CC1(C)C [CCC] | 226 | 457 nM | 2 nM | 1074 | 2170 nM
CC(C)(O)CN1CCN(c2ccc(Nc3ncc4cc5n(c4n3)C3(CCCC3)CNC5=O)nc2)CC1 [EEE] | 405 | 943 nM | 2.3 nM | 1266 | 2950 nM
CC(C)N1CCN(Cc2ccc(Nc3ncc4cc5n(c4n3)C3(CCCCC3)CNC5=O)nc2)CC1 [EE] | 289 | 1110 nM | 3.8 nM | 432 | 1660 nM
O=C1NCC2(CCCCC2)n2c1cc1cnc(Nc3ccc(N4CCN(C5CCC5)CC4)cn3)nc12 [F] | 127 | 190 nM | 1.5 nM | 419 | 628 nM
O=C1NCC2(CCCC2)n2c1cc1cnc(Nc3ccc(N4CCC(N5CCCCC5)CC4)cn3)nc12 [HHH] | – | – | 6.8 nM | 419 | 2840 nM
O=C1NCC2(CCCCC2)n2c1cc1cnc(Nc3ccc(N4CCN(CC5CC5)CC4)cn3)nc12 [HH] | 159 | 265 nM | 1.7 nM | 766 | 1280 nM
CC1(C)CN(c2ccc(Nc3ncc4cc5n(c4n3)C3(CCCCC3)CNC5=O)nc2)CCN1CC1CC1 [H] | 251 | 377 nM | 1.5 nM | 1013 | 1520 nM
CC(C)N1CCN(c2ccc(Nc3ncc4cc5n(c4n3)C3(CCCC3)CNC5=O)nc2)CC1 [III] | – | – | 6 nM | 626 | 3770 nM
CC(C)N1CCN(C(=O)c2ccc(Nc3ncc4cc5n(c4n3)C3(CCCCC3)CNC5=O)nc2)CC1 [II] | 120 | 239 nM | 2 nM | 184 | 367 nM
CC1(C)CN(c2ccc(Nc3ncc4cc5n(c4n3)C3(CCCCC3)CNC5=O)nc2)CCN1 [I] | 568 | 1130 nM | 2 nM | 1065 | 2120 nM
CCN(CC)C1CCN(C(=O)c2ccc(Nc3ncc4cc5n(c4n3)C3(CCCCC3)CNC5=O)nc2)C1 (centres unmarked) [JJ] | – | – | 1.4 nM | 204 | 288 nM
CC1CCN(C2CCN(c3ccc(Nc4ncc5cc6n(c5n4)C4(CCCCC4)CNC6=O)nc3)CC2)C1 (centres unmarked) [K] | 703 | 738 nM | 1 nM | 1019 | 1070 nM
O=C1NCC2(CCCCC2)n2c1cc1cnc(Nc3ccc(N4CCC(N5CCCCC5)CC4)cn3)nc12 [N] | – | – | 1 nM | 1500 | 1500 nM
CN(C)C1CCN(c2ccc(Nc3ncc4cc5n(c4n3)C3(CCCCC3)CNC5=O)nc2)CC1 [O] | 1245 | 3150 nM | – | – | –
O=C1NCC2(CCCC2)n2c1cc1cnc(Nc3ccc(N4CCNCC4)cn3)nc12 [QQQ] | – | – | 10.5 nM | 1057 | 11100 nM
CC(C)N1CCN(c2ccc(Nc3ncc4cc5n(c4n3)C3(CCCC3)CNC5=O)nn2)CC1 [RRR] | – | – | 2.6 nM | 1758 | 4500 nM
CN(C)C1CCN(c2ccc(Nc3ncc4cc5n(c4n3)C3(CCCC3)CNC5=O)nn2)CC1 [TTT] | – | – | 3.4 nM | 899 | 3030 nM
CC(C)[C@H]1CNC(=O)c2cc3cnc(Nc4ccc(N5CCNCC5)cn4)nc3n21 [UUU] | – | – | 18 nM | 914 | 16500 nM
CC(C)C[C@@H]1CNC(=O)c2cc3cnc(Nc4ccc(N5CCNCC5)cn4)nc3n21 [WWW] | – | – | 18.5 nM | 135 | 2500 nM
CC(C)C[C@@H]1CNC(=O)c2cc3cnc(Nc4ccc(N5CCN(C)CC5)cn4)nc3n21 [XXX] | – | – | 11.4 nM | 581 | 6620 nM
CN1CCN(c2ccc(Nc3ncc4cc5n(c4n3)C3(CCCC3)CNC5=O)nc2)CC1 [ZZ] | – | – | 10.5 nM | 949 | 9960 nM

Now from value to compound:

Fold Selectivity (CDK2/CycA/CDK4) (CDK2/CyclinA) | IC50 (CDK2/CyclinA) | IC50 (CDK4/CyclinD1) | Fold Selectivity (CDK2/CycE/CDK4) (CDK2/CyclinE) | IC50 (CDK2/CyclinE) | Compound
10109 | 4630 nM | 0.5 nM | 13319 | 6100 nM | CC(C)N1CCN(c2ccc(Nc3ncc4cc5n(c4n3)C3(CCCCC3)CNC5=O)nc2)C[C@@H]1C [AA]
754 | 3160 nM | 4.2 nM | 1516 | 6350 nM | C[C@H](O)CN1CCN(c2ccc(Nc3ncc4cc5n(c4n3)C3(CCCCC3)CNC5=O)nc2)CC1 [A]
4266 | 1890 nM | 0.4 nM | 6862 | 3040 nM | C[C@H]1CN(c2ccc(Nc3ncc4cc5n(c4n3)C3(CCCCC3)CNC5=O)nc2)CCN1CC1CC1 [B]
478 | 755 nM | 1.6 nM | 791 | 1250 nM | CCN(CC)C1CCN(c2ccc(Nc3ncc4cc5n(c4n3)C3(CCCCC3)CNC5=O)nc2)CC1 [CC]
428 | 616 nM | 1.4 nM | 1333 | 1920 nM | C[C@H](O)CN1CCN(c2ccc(Nc3ncc4cc5n(c4n3)C3(CCCCC3)CNC5=O)nc2)C[C@@H]1C [C]
– | – | 9.5 nM | 986 | 9350 nM | C[C@@H]1CN(c2ccc(Nc3ncc4cc5n(c4n3)C3(CCCC3)CNC5=O)nc2)C[C@H](C)N1 [DDD]
4519 | 8360 nM | 1.9 nM | 5200 | 9620 nM | C[C@@H]1CN(c2ccc(Nc3ncc4cc5n(c4n3)C3(CCCCC3)CNC5=O)nc2)C[C@H](C)N1C [DD]
1629 | 1500 nM | 0.9 nM | 3779 | 3480 nM | CN1CCN(c2ccc(Nc3ncc4cc5n(c4n3)C3(CCCCC3)CNC5=O)nc2)CC1(C)C [D]
202 | 204 nM | 1 nM | 688 | 695 nM | CC(C)C1CN(c2ccc(Nc3ncc4cc5n(c4n3)C3(CCCCC3)CNC5=O)nc2)CCN1 (centres unmarked) [E]
1197 | 1400 nM | 1.2 nM | 3949 | 4620 nM | CCN1[C@H](C)CN(c2ccc(Nc3ncc4cc5n(c4n3)C3(CCCCC3)CNC5=O)nc2)C[C@@H]1C [FF]
– | – | 13.7 nM | 555 | 7610 nM | CC(C)N1CCN(c2ccc(Nc3ncc4cc5n(c4n3)C3(CCCC3)CNC5=O)nc2)CC1C (centres unmarked) [GGG]
442 | 646 nM | 1.5 nM | 1767 | 2580 nM | CC1CN(c2ccc(Nc3ncc4cc5n(c4n3)C3(CCCCC3)CNC5=O)nc2)CCN1CCC(C)(C)C (centres unmarked) [G]
882 | 2830 nM | 3.2 nM | 1620 | 5200 nM | CCC(C)CN1[C@H](C)CN(c2ccc(Nc3ncc4cc5n(c4n3)C3(CCCC3)CNC5=O)nc2)C[C@@H]1C (some centres unmarked) [JJJ]
6546 | 4340 nM | 0.7 nM | 7707 | 5110 nM | C[C@@H]1CN(c2ccc(Nc3ncc4cc5n(c4n3)C3(CCCCC3)CNC5=O)nc2)CCN1C[C@@H](C)O [J]
69 | 87.3 nM | 1.3 nM | 231 | 291 nM | CC(C)(C)CCN1CCN(c2ccc(Nc3ncc4cc5n(c4n3)C3(CCCC3)CNC5=O)nc2)CC1 [KKK]
396 | 915 nM | 2.3 nM | 762 | 1760 nM | C[C@H]1CN(c2ccc(Nc3ncc4cc5n(c4n3)C3(CCCCC3)CNC5=O)nc2)CCN1 [KK]
– | – | 7.3 nM | 542 | 3960 nM | CCN(CC)C1CCN(c2ccc(Nc3ncc4cc5n(c4n3)C3(CCCC3)CNC5=O)nc2)C1 (centres unmarked) [UU]
– | – | 4.6 nM | 1490 | 6900 nM | CN(C)C1CCN(c2ccc(Nc3ncc4cc5n(c4n3)C3(CCCC3)CNC5=O)nc2)CC1 [YY]
